# Data published in patent publication US20110294732A1, “ERYTHROPOLETIN COMPLEMENTATION OR REPLACEMENT” (Universite De Strasbourg, priority 2007, published 2011).
# Legend:
# [1] = Solubility of ITPP salts; format: physicochemical
# From the text: (§1) Alternatively, ITPP-Ca can be produced by the addition of equimolar amounts of CaCl2 with an aqueous solution of ITPP-Na. The resulting mixture gives ITPP-Ca, which contains NaCl as an impurity.
# [2] = Toxicity of ITPP salts; settings: compared with the calcium salt / mixed salt
# From the text: as §1
# [3] = tested on: circulating RBC; test: P50 shift of circulating RBC after oral administration in drinking water; format: in vivo, C57BL/6 mice
# Procedure: In experiments conducted in vivo in which ITPP was administered orally, ITPP was dissolved in drinking (not deionized) water at a 20 g/L-concentration (=27 mM, pH 7.0) and offered for drinking ad libitum. A significant shift of the P50 value of circulating RBCs was observed.
# Twelve C57BL/6 mice drank ITPP over 4 days (about 25 ml/24 hrs). Seven Control mice drank either pure water (three mice), or a solution of IHP (inositol hexaphosphate without the internal pyrophosphate rings) at the same concentration and pH as ITPP (4 mice). […] Blood was collected from the tail vein of the 12 C57BL/6 mice on day 0 (before treatment started), 1, 2, 4, 6, 7, 8, 10, 11 and 12, in order to measure P50 values. […] Oral application of ITPP caused significant right shifts of P50 (up to 31%) in mice.
# The 12 mice were observed over 12 days, the P50 values of their circulating RBC were measured almost daily. […] It appears that all mice ingesting the aqueous solution of ITPP present a shift of the P50 value of their circulating RBC, albeit with individual differences. FIG. 8 illustrates the individual differences in the P50 shift induced in the mice by ingestion of the aqueous solution of ITPP.
# [4] = Blood counts of mice after oral ingestion; format: in vivo; settings: single mouse, oral in water for 4 days, day 7; day 0 count 8.9-11.8
# From the text: Blood from mice that ingested ITPP or IHP in water (for 4 days) or water only was collected on day 0, 7 and 11, in order to assess any differences in the blood count (and the amount of erythropoietin in the sera) of treated and control mice. […] The amount of blood from the other mice was not sufficient to determine the blood count.
# [5] = target: T1, hemoglobin (Homo sapiens, UniProt P68871); settings: relative to DPG; cited from earlier work
# T1 sequence (P68871 2-147 limits assumed): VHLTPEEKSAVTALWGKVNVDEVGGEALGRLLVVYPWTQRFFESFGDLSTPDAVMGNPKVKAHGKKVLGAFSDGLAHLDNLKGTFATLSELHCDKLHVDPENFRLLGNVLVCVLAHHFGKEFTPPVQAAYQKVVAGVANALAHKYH
# T1 sequence (P69905 2-142 partner limits assumed): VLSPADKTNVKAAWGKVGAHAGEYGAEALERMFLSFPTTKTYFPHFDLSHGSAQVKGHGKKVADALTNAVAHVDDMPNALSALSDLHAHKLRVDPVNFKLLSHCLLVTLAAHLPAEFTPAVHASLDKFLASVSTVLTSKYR
# [6] = target: T1, hemoglobin; settings: pH 7.4 and 37 degrees C; cited from earlier work
# [7] = Blood counts of mice after oral ingestion; format: in vivo; settings: single mouse, oral in water for 4 days; day 0 count 8.9-11.8
smiles,measurement,setting,value
"O=P1([O-])OC2C3OP(=O)([O-])OP(=O)([O-])OC3C3OP(=O)([O-])OP(=O)([O-])OC3C2OP(=O)([O-])O1.[Ca+2].[Ca+2].[Ca+2] (stereo not drawn) [pure calcium salt of ITPP, Calcium Salt of myo-inositol 1,6:2,3:4,5-tripyrophosphate]",solubility,[1],relatively insoluble
"O=P1([O-])OC2C3OP(=O)([O-])OP(=O)([O-])OC3C3OP(=O)([O-])OP(=O)([O-])OC3C2OP(=O)([O-])O1.[Na+].[Na+].[Na+].[Na+].[Na+].[Na+] (stereo not drawn) [pure sodium salt, myo-inositol tripyrophosphate]",toxicity,[2],relatively more toxic
"O=P(O)(O)O[C@H]1[C@H](OP(=O)(O)O)[C@@H](OP(=O)(O)O)[C@H](OP(=O)(O)O)[C@@H](OP(=O)(O)O)[C@H]1OP(=O)(O)O [IHP, Inositol hexaphosphate, reference compound]",right shift of P50,"[3]; oral, 20 g/L (27 mM) in drinking water over 4 days",complete absence of shift
same,"P50 day 7, %","[3]; single mouse, oral in water for 4 days, day 7",3%
same,"P50 day 10, %","[3]; single mouse, oral in water for 4 days, day 10",0%
same,RBC × 10^6/mm^3 (day 7),[4],9.6 10^6/mm^3
same,"affinity to hemoglobin, higher than DPG",[5],1000 fold
same,P50 of hemoglobin increased up to,[6],≤ 96.4 mm Hg
same,RBC × 10^6/mm^3,[7],10.77 10^6/mm^3
